Laboratory results as given in patent US10463658B2, “Method of inhibiting FLT3 kinase” (AROG Pharmaceuticals, LLC, priority 2013, dated 2019).

Tests used:
FLT3 ITD = target: T1, FLT3 ITD (Homo sapiens, UniProt P36888); settings: read-out: Binding Constant (Kd), FLT3 ITD; CP-673,451 as tosylate salt
T1 sequence (P36888 1-993): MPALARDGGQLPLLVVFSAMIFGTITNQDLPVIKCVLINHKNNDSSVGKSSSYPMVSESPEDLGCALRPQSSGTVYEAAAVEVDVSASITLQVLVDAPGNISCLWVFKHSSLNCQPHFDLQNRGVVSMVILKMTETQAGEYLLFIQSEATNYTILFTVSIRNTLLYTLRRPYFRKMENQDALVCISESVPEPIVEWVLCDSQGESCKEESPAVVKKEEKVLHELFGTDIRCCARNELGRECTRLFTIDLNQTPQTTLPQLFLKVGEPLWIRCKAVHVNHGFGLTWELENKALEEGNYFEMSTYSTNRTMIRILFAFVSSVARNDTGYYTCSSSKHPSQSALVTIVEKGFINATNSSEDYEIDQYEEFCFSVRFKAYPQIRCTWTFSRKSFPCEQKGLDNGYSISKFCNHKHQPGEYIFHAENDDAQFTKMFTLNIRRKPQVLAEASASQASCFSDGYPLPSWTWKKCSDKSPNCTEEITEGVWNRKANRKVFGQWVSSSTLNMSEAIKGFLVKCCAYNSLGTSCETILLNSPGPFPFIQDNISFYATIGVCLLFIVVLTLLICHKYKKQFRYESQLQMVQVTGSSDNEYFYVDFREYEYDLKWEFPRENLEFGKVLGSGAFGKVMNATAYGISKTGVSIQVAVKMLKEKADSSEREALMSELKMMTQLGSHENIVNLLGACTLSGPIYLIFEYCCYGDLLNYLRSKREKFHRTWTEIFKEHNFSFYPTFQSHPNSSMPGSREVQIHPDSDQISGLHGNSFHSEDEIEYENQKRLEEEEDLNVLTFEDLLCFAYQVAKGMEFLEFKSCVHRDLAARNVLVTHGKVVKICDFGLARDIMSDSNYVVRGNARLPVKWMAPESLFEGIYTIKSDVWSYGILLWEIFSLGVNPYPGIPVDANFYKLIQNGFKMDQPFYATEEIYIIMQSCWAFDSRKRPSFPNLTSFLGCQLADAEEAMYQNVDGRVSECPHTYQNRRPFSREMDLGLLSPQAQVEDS

wild type FLT3 = target: T2, wild type FLT3 (Homo sapiens, UniProt P36888); assay: Direct enzyme phosphorylation assay (Millipore Kinase IC50 Profiler), wild type FLT3; type: biochemical; settings: tosylate salt; n=2; read-out: IC50 against wild type FLT3
T2 construct: purchased Millipore
T2 sequence (P36888 27-993): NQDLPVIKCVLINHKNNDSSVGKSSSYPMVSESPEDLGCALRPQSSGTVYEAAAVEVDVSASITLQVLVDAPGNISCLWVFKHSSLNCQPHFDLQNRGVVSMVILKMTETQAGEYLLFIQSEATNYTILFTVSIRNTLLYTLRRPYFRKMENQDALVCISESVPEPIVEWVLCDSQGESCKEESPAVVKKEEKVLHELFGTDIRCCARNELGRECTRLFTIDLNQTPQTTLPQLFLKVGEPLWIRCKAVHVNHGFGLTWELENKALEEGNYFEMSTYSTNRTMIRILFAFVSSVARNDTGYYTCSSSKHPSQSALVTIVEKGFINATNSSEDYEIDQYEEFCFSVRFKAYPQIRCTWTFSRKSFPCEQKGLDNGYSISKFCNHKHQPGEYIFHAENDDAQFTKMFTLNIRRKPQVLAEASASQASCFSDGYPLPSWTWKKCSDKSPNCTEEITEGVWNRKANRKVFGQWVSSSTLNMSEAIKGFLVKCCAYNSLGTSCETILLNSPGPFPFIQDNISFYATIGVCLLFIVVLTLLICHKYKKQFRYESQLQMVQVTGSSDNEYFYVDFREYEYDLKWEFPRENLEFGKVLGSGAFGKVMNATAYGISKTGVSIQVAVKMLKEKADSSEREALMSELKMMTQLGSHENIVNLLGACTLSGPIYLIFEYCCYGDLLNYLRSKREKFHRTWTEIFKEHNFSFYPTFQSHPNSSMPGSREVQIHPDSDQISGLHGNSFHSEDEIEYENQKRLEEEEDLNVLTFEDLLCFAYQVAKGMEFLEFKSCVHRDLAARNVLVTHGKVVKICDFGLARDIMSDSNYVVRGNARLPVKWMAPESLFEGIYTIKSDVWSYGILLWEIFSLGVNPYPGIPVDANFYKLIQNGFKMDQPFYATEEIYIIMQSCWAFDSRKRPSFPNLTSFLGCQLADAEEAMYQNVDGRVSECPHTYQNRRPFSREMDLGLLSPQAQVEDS
Protocol: Direct enzyme phosphorylation assay. The Millipore Kinase IC50 Profiler assay was used to screen the present invention against a panel of normal FLT3 and mutated FLT3 kinases. For assays of both kinases, the FLT3 enzyme was incubated with 8 mM of 3-(N-morpholino)propanesulfonic acid (MOPS) at a pH of 7.0, 0.2 mM Ethylenediaminetetraacetic acid (EDTA), 50 uM, a synthetic Abl peptide substrate […] (SEQ ID NO: 1), 10 mM MgAcetate and [γ-^33P-ATP]. The reaction was initiated by the addition of MgATp mix. The reaction mixture was incubated for 40 minutes at room temperature and halted by the addition of 3% phosphoric acid solution. 10 uL of the reaction solution was spotted on P30 filtermat and washed three times in 75 mM phosphoric acid for 5 minutes and then once in methanol prior to drying and scintillation counting. The scintillation values for each replicate, including positive and negative controls, were analyzed using XLFit version 5.1 to determine the IC50 values for the present invention against normal and mutated FLT3.

- Kd (FLT3 ITD): 0.25 nM
- IC50 (wild type FLT3): 4 nM
Structure (SMILES): COCCOc1ccc2c(c1)ncn2-c1ccc2cccc(N3CCC(N)CC3)c2n1 [CP-673,451]
